Test results as given in US6211227A, “Tricyclic compounds” (Kyowa Hakko Kogyo Co., Ltd., priority 1997, dated 2001).
Read-outs that look alike come from different tables or passages of the source.

Key:
[1] = tested on: detrusor muscle (isolated urinary bladder strips); test: Relaxation of rhythmic contraction induced by 15 mmol/l KCl in isolated urinary bladder strips (Test Example 2); set-up: species or system guinea pig (male albino Hartley); settings: Cavia porcellus; KCl 15 mmol/l; cumulative, contact time 15-30 minutes; 50% relaxant of maximum response
From the text: (§1) The activity of Compounds (I) as therapeutic agents for pollakiuria and urinary incontinence is described below. In the following Test Examples 1 and 2, IC50 value was defined as the concentration at which a test compound produces 50% relaxant of maximum response of detrusor muscle.
(§2) Male albino Hartley guinea pigs (350-550 g) were used as test animals. Each animal was exsanguinated to death under sodium pentobarbital anesthesia. The lower abdominal cavity was opened and its bladder was positioned. The connective tissue and the fat tissue around the bladder were removed, and the bladder was washed. After bilateral pelvic nerves on the surface of the abdominal side of the bladder were dissected, the bladder was taken out on the entrance of ureter. The bladder was washed with a Krebs-Henseleit buffer [composition (mM): NaCl 118, KCl 4.7, MgSO4 1.2, KH2 PO4 1.2, CaCl2 2.5, NaHCO3 25, and D-glucose 11.1], and then put on a gauze patch soaked in the buffer in a Petri dish. The dome and the trigone of the bladder were cut away. The back of the bladder was cut vertically in the middle with scissors, and the bladder was put flat on the gauze patch. The mucosa of the bladder was removed. The back of the bladder was cut vertically to get 6 strips which are ca. 2.0 mm wide and ca. 10 mm long.
(§3) Each strip was tied at one end to plastic rod and placed in a 20 ml organ bath containing a Krebs-Henseleit solution which was maintained at 37° C. and bubbled vigorously with a gas mixture of 5% CO2 and 95% O2. The pH of the solution was adjusted to about 7.4. The other end of the strip was tied via silk thread to a force displacement transducer (NIHON KODEN TB-611T). The transducer was connected to a polygraph (NIHON KODEN AP-621G), and the changes in tension were recorded on a recorder (YOKOGAWA type 3066). The polygraph was graduated by 0.5 g/cm.
Isolated urinary bladder strips were prepared in the same manner as in Test Example 1, and the tension of the preparation was measured. After the tension of the tissue was adjusted to be a steady state at 1 g, 15 mmol/l KCl was applied. After the rhythmic contraction was confirmed to appear by KCl, the tissue was washed. Then, 15 mmol/l KCl was applied again. After the rhythmic contraction induced by KCl became constant, a test compound was applied by the cumulative method (half-logarithmic increment). The contact time at each concentration was 15-30 minutes. The activity of the compound was expressed as the maximum relaxation rate (%) against the tension induced by the agonist.

bladder = test: animal or person; settings: Rattus norvegicus, po, read-out: Contraction interval
Experimental: Male SD strain rats (200-300 g) were used as test animals. Each animal was anesthetized by intraperitoneally administering 50 mg/kg Nembutal. The hair on the abdomen, the thigh, and the back of the neck was shaved, followed by disinfection with 70% ethanol. The left femoral artery of the rat was exposed by incising the thigh for the insertion of a catheter into the femoral artery. A catheter filled with physiological saline containing heparin (1000 units/ml) was introduced approximately 2-3 cm into the artery so that its tip resided in the abdominal artery. The distal end of the catheter was exteriorized at the nape of the neck, sealed, and fixed on the skin tightly. A bladder catheter was implanted according to the method of Yaksh, et al., [Am. J. Physiol., vol.251, R1177-1185 (1986)]. The bladder was exposed through a midline abdominal incision. The bladder dome was given a small incision to make a small hole. A catheter filled with physiological saline was placed into the bladder and secured with a silk ligature. The other end of the catheter was exteriorized at the nape of the neck after being passed under the skin using a trocar. The exposed end of the catheter was sealed and fixed on the skin tightly. The abdominal muscles and skin were sutured, and the test animal was recovered from anesthesia.
The rat was weighed 24-48 hours after the operation. Each rat was placed in a Bollman cage (NATSUME SEISAKUSHO), and the test was done under partial restraint. The arterial catheter was connected to a pressure transducer (NIHON KODEN DX-300) used for the measurement of blood pressure. The bladder catheter was connected to a sylinge pump for physiological saline infusion and to a pressure transducer with PE50 tubing and a three-way stop-cock. Intravesical physiological saline infusion (0.05 ml/minute) was started and continued during the test. The changes of blood pressure, heart rate, and intravesical pressure were recorded with a polygraph (NIHON KODEN). The test animal was allowed to equilibration (for ca. 60-120 minutes) until its micturition pattern became constant. At this point, a basal value of each test parameter was recorded, and the rat was compulsorily given a test compound (in 0.3% carboxymethyl cellulose-physiological saline) at a dose of 1 mg/kg (body weight) by oral administration. […] As a control compound, cromakalim was used. The contraction interval, the systemic blood pressure, and the heart rate were measured for 5 hours after the administration of the compound at one-hour intervals and were expressed as the relative values based on the pre-administration values which were regarded as 100.

[2] = tested on: detrusor muscle (isolated urinary bladder strips); test: Relaxation of contraction induced by 50 mmol/l KCl in isolated urinary bladder strips (Test Example 1); set-up: species or system guinea pig (male albino Hartley); settings: Cavia porcellus, 0.5 h; KCl 50 mmol/l; cumulative, contact time 30 minutes; 50% relaxant of maximum response
From the text: as §1, §2, §3
After the tissue was incubated in the buffer for 15 minutes without preloading, tension was added thereto for about one hour. The preloading tension added was 1.5 g and it was relaxed to about 1 g. The strips were allowed to equilibrate until their contractions became constant and tension was adjusted to 1 g. After this equilibrium period, 50 mmol/l KCl (the whole content in the bath) was added, and the tissue was washed 10 minutes later. KCl was added to the tissue at intervals of 30 minutes, followed by washing 10 minutes later, and KCl was applied repeatedly until the developed tension induced by KCl becomes constant. When the tissue was confirmed to contract constantly by the application of KCl and relax to the steady state after washing, 50 mmol/l KCl was applied again. After the tissue reached the steady state and the base line was obtained, a test compound was applied by the cumulative method (half-logarithmic increment). The contact time at each concentration was 30 minutes. The activity of the compound was expressed as the maximum relaxation rate (%) against the tension induced by the agonist.

SMILES	IC50 [1]	response vs control in vivo at 1 mg/kg (bladder; 1 h)	response vs control in vivo at 1 mg/kg (bladder; 2 h)	response vs control in vivo at 1 mg/kg (bladder; 3 h)	response vs control in vivo at 1 mg/kg (bladder; 4 h)	response vs control in vivo at 1 mg/kg (bladder; 5 h)	IC50 [2]
COc1ccc2c(c1)CS(=O)(=O)c1cccc(NC(=O)C(C)(O)C(F)(F)F)c1C2=O (stereo not drawn) [Compound 1-24, 5,5-Dioxo-8-methoxy-1-(3,3,3-trifluoro-2-hydroxy-2-methylpropanoylamino)-6,11-dihydrodibenzo[b,e]thiepin-11-one]	> 10 µM	140 ± 11%	121 ± 17%	160 ± 19%	169 ± 25%	169 ± 25%	–
CC(O)(C(=O)Nc1ccc2c(c1)S(=O)(=O)Cc1ccsc1C2=O)C(F)(F)F (stereo not drawn) [Compound 1-2, 5,5-Dioxo-7-(3,3,3-trifluoro-2-hydroxy-2-methylpropanoylamino)-4,10-dihydrothieno[3,2-c][1]benzothiepin-10-one]	5.1 µM	116 ± 8%	136 ± 5%	149 ± 9%	143 ± 5%	139 ± 6%	> 10 µM
CC(O)(C(=O)Nc1cccc2c1C(=O)c1cccnc1CS2(=O)=O)C(F)(F)F (stereo not drawn) [Compound 1-14, 10,10-Dioxo-6-(3,3,3-trifluoro-2-hydroxy-2-methylpropanoylamino)-5,11-dihydro[1]benzothiepino[3,4-b]pyridin-5-one]	> 10 µM	–	–	–	–	–	–
CC(C)(O)C(=O)Nc1cccc2c1C(=O)c1sccc1CS2(=O)=O [Compound 3-12, 5,5-Dioxo-9-(2-hydroxy-2-methylpropanoylamino)-4,10-dihydrothieno[3,2-c][1]benzothiepin-10-one]	> 10 µM	118 ± 18%	153 ± 20%	152 ± 17%	161 ± 26%	165 ± 19%	–
CC(O)(C(=O)Nc1ccc(Cl)c2c1C(=O)c1sccc1CS2(=O)=O)C(F)(F)F (stereo not drawn) [Compound 1-33, 6-Chloro-5,5-dioxo-9-(3,3,3-trifluoro-2-hydroxy-2-methylpropanoylamino)-4,10-dihydrothieno[3,2-c][1]benzothiepin-10-one]	0.7 µM	124 ± 15%	137 ± 15%	137 ± 4%	142 ± 10%	148 ± 21%	–
CC(O)(C(=O)Nc1cccc2c1C(=O)c1cccc(F)c1CS2(=O)=O)C(F)(F)F (stereo not drawn) [Compound 1-19, 5,5-Dioxo-7-fluoro-1-(3,3,3-trifluoro-2-hydroxy-2-methylpropanoylamino)-6,11-dihydrodibenzo[b,e]thiepin-11-one]	4.3 µM	114 ± 9%	139 ± 7%	136 ± 11%	145 ± 6%	167 ± 15%	–
CC(O)(C(=O)Nc1ccc2c(c1)S(=O)(=O)Cc1ccccc1C2=O)C(F)(F)F (stereo not drawn) [Compound 1-4, 5,5-Dioxo-3-(3,3,3-trifluoro-2-hydroxy-2-methylpropanoylamino)-6,11-dihydrodibenzo[b,e]thiepin-11-one]	3.2 µM	–	–	–	–	–	4.5 µM
COc1ccc(NC(=O)C(C)(O)C(F)(F)F)c2c1S(=O)(=O)Cc1ccsc1C2=O (stereo not drawn) [Compound 1-28, 5,5-Dioxo-6-methoxy-9-(3,3,3-trifluoro-2-hydroxy-2-methylpropanoylamino)-4,10-dihydrothieno[3,2-c][1]benzothiepin-10-one]	> 10 µM	127 ± 10%	139 ± 7%	133 ± 6%	140 ± 3%	145 ± 3%	–
CC(O)(C(=O)Nc1cccc2c1C(=O)c1ccoc1CS2(=O)=O)C(F)(F)F (stereo not drawn) [Compound 1-7, 9,9-Dioxo-5-(3,3,3-trifluoro-2-hydroxy-2-methylpropanoylamino)-4,10-dihydrofuro[2,3-c][1]benzothiepin-4-one]	> 10 µM	116 ± 9%	138 ± 12%	156 ± 17%	155 ± 16%	155 ± 17%	–
CCC(C)(O)C(=O)Nc1cccc2c1C(=O)c1sccc1CS2(=O)=O (stereo not drawn) [Compound 3-14, 5,5-Dioxo-9-(2-hydroxy-2-methylbutanoylamino)-4,10-dihydrothieno[3,2-c][1]benzothiepin-10-one]	> 10 µM	–	–	–	–	–	–
CC(O)(C(=O)Nc1ccc2c(c1)S(=O)(=O)Cc1ccc(F)cc1C2=O)C(F)(F)F (stereo not drawn) [Compound 1-22, 5,5-Dioxo-9-fluoro-3-(3,3,3-trifluoro-2-hydroxy-2-methylpropanoylamino)-6,11-dihydrodibenzo[b,e]thiepin-11-one]	6.5 µM	–	–	–	–	–	–
Cc1ccc(NC(=O)C(C)(O)C(F)(F)F)c2c1S(=O)(=O)Cc1ccsc1C2=O (stereo not drawn) [Compound 1-29, 5,5-Dioxo-6-methyl-9-(3,3,3-trifluoro-2-hydroxy-2-methylpropanoylamino)-4,10-dihydrothieno[3,2-c][1]benzothiepin-10-one]	2.4 µM	–	–	–	–	–	–
CC(O)(C(=O)Nc1cccc2c1C(=O)c1ccsc1CS2(=O)=O)C(F)(F)F (stereo not drawn) [Compound 1-5, 9,9-Dioxo-5-(3,3,3-trifluoro-2-hydroxy-2-methylpropanoylamino)-4,10-dihydrothieno[2,3-c][1]benzothiepin-4-one]	4 µM	–	–	–	–	–	8.7 µM
CC1(C)Oc2ccc(C#N)cc2C(N2CCCC2=O)C1O (stereo not drawn) [Cromakalim, cromakalim, reference compound]	–	124%	133%	142%	133%	133%	–
CC(O)(C(=O)Nc1ccc(F)c2c1C(=O)c1sccc1CS2(=O)=O)C(F)(F)F (stereo not drawn) [Compound 1-35, 5,5-Dioxo-6-fluoro-9-(3,3,3-trifluoro-2-hydroxy-2-methylpropanoylamino)-4,10-dihydrothieno[3,2-c][1]benzothiepin-10-one]	2.5 µM	115 ± 2%	133 ± 12%	131 ± 15%	152 ± 4%	148 ± 3%	–
CC(O)(C(=O)Nc1ccc2c(c1)C(=O)c1sccc1CS2(=O)=O)C(F)(F)F (stereo not drawn) [Compound 1-9, 5,5-Dioxo-8-(3,3,3-trifluoro-2-hydroxy-2-methylpropanoylamino)-4,10-dihydrothieno[3,2-c][1]benzothiepin-10-one]	> 10 µM	129 ± 23%	123 ± 10%	143 ± 12%	135 ± 16%	130 ± 5%	–
CC(O)(C(=O)Nc1ccc2c(c1)S(=O)(=O)Cc1occc1C2=O)C(F)(F)F (stereo not drawn) [Compound 1-8, 9,9-Dioxo-7-(3,3,3-trifluoro-2-hydroxy-2-methylpropanoylamino)-4,10-dihydrofuro[2,3-c][1]benzothiepin-4-one]	7.5 µM	–	–	–	–	–	–
O=C1c2sccc2CS(=O)(=O)c2cccc(NC(=O)C3CCCO3)c21 (stereo not drawn) [Compound 3-9, 5,5-Dioxo-9-(2-tetrahydrofuroylamino)-4,10-dihydrothieno[3,2-c][1]benzothiepin-10-one]	> 10 µM	122 ± 7%	128 ± 16%	129 ± 18%	150 ± 19%	160 ± 21%	–
